# Source: patent publication US20250250230A1, “HETEROCYCLIC COMPOUND” (TAKEDA PHARMACEUTICAL COMPANY LIMITED, priority 2022, published 2025)
# Biological target: T1, human orexin type 2 receptor (Homo sapiens, UniProt O43614)
# T1 construct: expressed in transfected cells
# T1 sequence (O43614 1-444): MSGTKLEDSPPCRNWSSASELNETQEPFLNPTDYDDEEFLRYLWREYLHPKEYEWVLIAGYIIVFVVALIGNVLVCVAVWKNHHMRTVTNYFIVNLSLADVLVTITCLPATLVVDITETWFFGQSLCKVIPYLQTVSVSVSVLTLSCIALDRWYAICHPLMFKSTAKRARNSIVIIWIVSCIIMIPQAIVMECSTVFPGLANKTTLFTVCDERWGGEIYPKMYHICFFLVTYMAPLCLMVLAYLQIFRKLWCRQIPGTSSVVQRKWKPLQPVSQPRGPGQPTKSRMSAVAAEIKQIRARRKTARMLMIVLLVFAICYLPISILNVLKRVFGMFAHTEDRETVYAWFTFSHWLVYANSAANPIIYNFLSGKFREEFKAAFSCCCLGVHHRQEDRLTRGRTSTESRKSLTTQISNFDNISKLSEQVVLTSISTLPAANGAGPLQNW
# Assay: Measurement of orexin type 2 receptor agonist activity (calcium fluorescence, Fluo-4 AM, FDSS)
# Assay type: cell-based
# Conditions: test compound 3 μM; CHO cells expressing human OX2 receptor; DMSO = 0%, orexin A (human) = 100%
# How it was run: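 CHO-K1 cells stably expressing human OX2R were loaded with Fluo-4 AM (30 min 37 °C, 30 min RT) in HEPES-buffered HBSS with 0.1% BSA and probenecid. Calcium fluorescence was followed on FDSS for 2 min after compound addition; activity normalised to DMSO (0%) and 10 nM orexin A (100%).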
row,SMILES,"OX2R agonist activity (3 μM, %) [%]"
1,"CS(=O)(=O)N[C@H]1CCN(C(=O)C2CC2(F)c2ccccc2-c2c(F)cccc2F)C1 (mixture of isomers) [Example 198, a mixture of N-{(3S)-1-[(1R,2R)-2-(2′,6′-difluoro[1,1′-biphenyl]-2-yl)-2-fluorocyclopropane-1-carbonyl]pyrrolidin-3-yl}methanesulfonamide and N-{(3S)-1-[(1S,2S)-2-(2′,6′-difluoro[1,1′-biphenyl]-2-yl)-2-fluorocyclopropane-1-carbonyl]pyrrolidin-3-yl}methanesulfonamide]",101
2,"CS(=O)(=O)NCC1CCN1C(=O)C1CC1c1ccccc1-c1c(F)cccc1F (racemic) [Example 127, a mixture of rac-N-({(2R)-1-[(1R,2R)-2-(2′,6′-difluoro[1,1′-biphenyl]-2-yl)cyclopropane-1-carbonyl]azetidin-2-yl}methyl)methanesulfonamide and rac-N-({(2S)-1-[(1R,2R)-2-(2′,6′-difluoro[1,1′-biphenyl]-2-yl)cyclopropane-1-carbonyl]azetidin-2-yl}methyl)methanesulfonamide]",57
3,"O=C([C@@H]1C[C@@]1(F)c1ccc(F)cc1-c1c(F)cccc1F)N1C[C@@H](F)[C@H]1CNS(=O)(=O)C1CC1 [Example 429, N-({(2R,3R)-3-fluoro-1-[(1S,2S)-2-fluoro-2-(2′,5,6′-trifluoro[1,1′-biphenyl]-2-yl)cyclopropane-1-carbonyl]azetidin-2-yl}methyl)cyclopropanesulfonamide]",99
4,"CS(=O)(=O)NC1CCCN(C(=O)C2CC2c2ccc(F)cc2-c2ccccc2)CC1 (racemic) [Example 87, a mixture of rac-N-{(4R)-1-[(1R,2R)-2-(5-fluoro[1,1′-biphenyl]-2-yl)cyclopropane-1-carbonyl]azepan-4-yl}methanesulfonamide and rac-N-{(4S)-1-[(1R,2R)-2-(5-fluoro[1,1′-biphenyl]-2-yl)cyclopropane-1-carbonyl]azepan-4-yl}methanesulfonamide]",81
5,"COCS(=O)(=O)N[C@H]1CCCN(C(=O)C2CC2c2ccccc2-c2c(F)cccc2F)C1 (mixture of isomers) [Example 214, a mixture of N-{(3S)-1-[(1R,2R)-2-(2′,6′-difluoro[1,1′-biphenyl]-2-yl)cyclopropane-1-carbonyl]piperidin-3-yl}-1-methoxymethanesulfonamide and N-{(3S)-1-[(1S,2S)-2-(2′,6′-difluoro[1,1′-biphenyl]-2-yl)cyclopropane-1-carbonyl]piperidin-3-yl}-1-methoxymethanesulfonamide]",95
6,"CS(=O)(=O)NC12CC1CN(C(=O)C1CC1c1ccccc1-c1c(F)cccc1F)C2 (racemic) [Example 124, a mixture of rac-N-{(1S,5R)-3-[(1R,2R)-2-(2′,6′-difluoro[1,1′-biphenyl]-2-yl)cyclopropane-1-carbonyl]-3-azabicyclo[3.1.0]hexan-1-yl}methanesulfonamide and rac-N-{(1R,5S)-3-[(1R,2R)-2-(2′,6′-difluoro[1,1′-biphenyl]-2-yl)cyclopropane-1-carbonyl]-3-azabicyclo[3.1.0]hexan-1-yl}methanesulfonamide]",104
7,"CC1(C(=O)N2CC[C@H](NS(C)(=O)=O)C2)CC1c1ccccc1-c1c(F)cccc1F (stereo partly drawn) [Example 247, N-{(3S)-1-[(1R,2S)-2-(2′,6′-difluoro[1,1′-biphenyl]-2-yl)-1-methylcyclopropane-1-carbonyl]pyrrolidin-3-yl}methanesulfonamide, or N-{(3S)-1-[(1S,2R)-2-(2′,6′-difluoro[1,1′-biphenyl]-2-yl)-1-methylcyclopropane-1-carbonyl]pyrrolidin-3-yl}methanesulfonamide]",100
